Earlier results, collected in patent US20220288358A1, “Drug-Coated Balloon Controllable In Drug Metabolism And Preparation Method Therefor” (Shanghai HeartCare Medical Technology Corporation Limited, priority 2019, published 2022).
“Also recorded” adds a separate entry of the source.

biological target: FKBP12 protein (Homo sapiens, UniProt P62942); details: rank order from strong to weak; stated without data
Sequence (P62942 whole entry, species assumed): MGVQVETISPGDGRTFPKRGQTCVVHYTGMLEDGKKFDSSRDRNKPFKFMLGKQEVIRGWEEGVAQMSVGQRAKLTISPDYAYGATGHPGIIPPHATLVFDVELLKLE

Compound | ability to bind FKBP12 protein
CCC(C)(C)C(=O)C(=O)N1CCC[C@H]1C(=O)OCCCc1cccnc1 [drug a, 3-pyridin-3-ylpropyl-(2 S)-1-(3,3-dimethyl-2-oxo-pentanoyl)-pyrrolidine-2-carboxylate] | from strong to weak is drug c, drug b, and drug a
CCOC(=O)[C@H](CC(C)C)NC(=O)[C@@H]1CSCCN1S(=O)(=O)c1ccc(C)cc1 [drug b, (3R)-4-(p-Toluenesulfonyl)-1,4-thiazane-3-carboxylicacid-L-leucine ethyl ester] | from strong to weak is drug c, drug b, and drug a
Cc1ccc(S(=O)(=O)N2CCSC[C@H]2C(=O)N[C@@H](Cc2ccccc2)C(=O)OCc2ccccc2)cc1 [drug c, (3R)-4-(p-Toluenesulfonyl)-1,4-thiazane-3-carboxylic acid-L-phenylalanine benzyl ester] | stronger than that of drug a; also recorded: from strong to weak is drug c, drug b, and drug a
